Experimental data published in patent publication US8993603B2, “Pharmaceutical composition and method using antifungal agent in combination” (Toyama Chemical Co., Ltd., priority 2005, dated 2015).

Tests used:
[1] = system: Cryptococcus neoformans ATCC90112; assay: Mouse systemic infection model using Cryptococcus neoformans; type: in vivo; settings: ICR mice, 22 days after infection, test compound 0.125 mg/kg s.c., once a day, 7 times
Description: In vivo activity was evaluated employing a mouse systemic infection model using Cryptococcus neoformans.
Mice (four-week old (at infection) male ICR mice, 10 mice per group) were intraperitoneally administered with cyclophosphamide 4 days prior to infection (200 mg/kg) and the day after infection (100 mg/kg). An inoculum was prepared by suspending in sterile physiological saline solution Cryptococcus neoformans ATCC90112 on a SDA flat plate that had been cultured for one night at 35° C., counting the number of cells using a biological microscope, and then diluting with sterile physiological saline solution. The mice were intravenously inoculated in their tails with 0.2 mL of the inoculum to induce infection (approximately 8×10^4 CFU/mouse).
(§1) The test compound was dissolved in a small amount of 0.1 mol/L hydrochloric acid, and the resultant solution was diluted with sterile physiological saline solution.
Fluconazole was prepared using sterile physiological saline solution.
Amphotericin B was dissolved in a 5% aqueous glucose solution.
The test compound (0.125 mg/kg), fluconazole (5 mg/kg) and amphotericin B (0.25 mg/kg) were subcutaneously administered 2 hours after infection and then once a day for 6 days a total of 7 times. The test was carried out for the case where the each of the agents was administered singly and in combination by administering each of the agents immediately after the test compound had been administered. Efficacy in the susceptibility test was evaluated by the survival rate 22 days after infection.

[2] = system: Aspergillus fumigatus TIMM0063; assay: Mouse systemic infection model using Aspergillus fumigatus; type: in vivo; settings: ICR mice, 15 days after infection, test compound 0.1 mg/kg s.c., once a day, 7 times
Description: In vivo activity was evaluated employing a mouse systemic infection model using Aspergillus fumigatus.
As for the inoculum, mice (four-week old (at infection) male ICR mice, 10 mice per group) were intraperitoneally administered with cyclophosphamide 4 days prior to infection (200 mg/kg) and the day after infection (100 mg/kg). A conidium suspension of Aspergillus fumigatus TIMM0063 was diluted with sterile physiological saline solution containing 0.05% Tween 80 (manufactured by Difco Laboratories) to prepare an inoculum. The mice were intravenously inoculated in their tails with 0.2 mL of the inoculum to induce infection (approximately 4×10^4 CFU/mouse).
as §1
Voriconazole was dissolved in 50 mg/mL aqueous sulfobutyl ether β-cyclodextrin sodium (SIDIX) solution.
Flucytosine was suspended in 0.5% methyl cellulose solution.
The test compound (0.1 mg/kg) and voriconazole (5 mg/kg) were subcutaneously administered and flucytosine (50 mg/kg) was orally administered 2 hours after infection and then once a day for 6 days for a total of 7 times. The test was carried out for the case where each of the agents was administered singly and in combination by administering each of the agents immediately after the test compound had been administered. Efficacy in the susceptibility test was evaluated by the survival rate 15 days after infection.

[3] = Table 7, amphotericin B 0.25 mg/kg s.c.
[4] = Table 4, voriconazole 5 mg/kg s.c.
[5] = Table 5, flucytosine 50 mg/kg orally
[6] = Table 6, fluconazole 5 mg/kg s.c.

Row | SMILES | Survival rate (%) [1, 3] [%] | Survival rate (%) [2, 4] [%] | Survival rate (%) [2, 5] [%] | Survival rate (%) [1, 6] [%]
1 | C[C@@H]1[C@H](O)[C@@H](C)/C=C/C=C/C=C/C=C/C=C/C=C/C=C/[C@H](O[C@@H]2O[C@H](C)[C@@H](O)[C@H](N)[C@@H]2O)C[C@@H]2O[C@](O)(C[C@@H](O)C[C@@H](O)[C@H](O)CC[C@@H](O)C[C@@H](O)CC(=O)O[C@H]1C)C[C@H](O)[C@H]2C(=O)O [AMPH-B, amphotericin B] | 20 |  |  | 
2 | C[C@@H](c1ncncc1F)[C@](O)(Cn1cncn1)c1ccc(F)cc1F [VLCZ, voriconazole] |  | 10 |  | 
3 | Nc1[nH]c(=O)ncc1F [5-FC, flucytosine] |  |  | 10 | 
4 | N=C(N)c1ccc(OCCCC2CCN(CCCOc3ccc(C(=N)N)cc3)CC2)cc1 [Test Compound] | 0 | 10 | 10 | 20
5 | OC(Cn1cncn1)(Cn1cncn1)c1ccc(F)cc1F [FLCZ, fluconazole] |  |  |  | 10
